Assay results from the supplement of paper PMC13380429.

Experiments:
Details in all cases: 72 h
Caco-2 [1] = assay: cell viability relative to DMSO; higher = less toxic
U2OS [2] = assay: as above
HepG2 [3] = assay: as above
Vero E6 [4] = assay: as above
Caco-2 [5] = assay: drug sensitivity score (DSS) for viability; higher = more toxic; extreme values may be limits of the assay
U2OS [6] = assay: as above
HepG2 [7] = assay: as above
Vero E6 [8] = assay: as above
Caco-2 [9] = assay: relative viability EC50 (midpoint between 100% and the lowest measured viability); higher = less toxic
U2OS [10] = assay: as above
HepG2 [11] = assay: as above
Vero E6 [12] = assay: as above
Calu-3 [13] = assay: cell viability relative to DMSO; higher = less toxic
Calu-3 [14] = assay: drug sensitivity score (DSS) for viability; higher = more toxic; extreme values may be limits of the assay
Calu-3 [15] = assay: relative viability EC50 (midpoint between 100% and the lowest measured viability); higher = less toxic

Structure (SMILES) | cell viability (Caco-2 [1]; 1 nM) [%] | cell viability (Caco-2 [1]; 10 nM) [%] | cell viability (Caco-2 [1]; 100 nM) [%] | cell viability (Caco-2 [1]; 1000 nM) [%] | cell viability (Caco-2 [1]; 10000 nM) [%] | cell viability (U2OS [2]; 1 nM) [%] | cell viability (U2OS [2]; 10 nM) [%] | cell viability (U2OS [2]; 100 nM) [%] | cell viability (U2OS [2]; 1000 nM) [%] | cell viability (U2OS [2]; 10000 nM) [%] | cell viability (HepG2 [3]; 1 nM) [%] | cell viability (HepG2 [3]; 10 nM) [%] | cell viability (HepG2 [3]; 100 nM) [%] | cell viability (HepG2 [3]; 1000 nM) [%] | cell viability (HepG2 [3]; 10000 nM) [%] | cell viability (Vero E6 [4]; 1 nM) [%] | cell viability (Vero E6 [4]; 10 nM) [%] | cell viability (Vero E6 [4]; 100 nM) [%] | cell viability (Vero E6 [4]; 1000 nM) [%] | cell viability (Vero E6 [4]; 10000 nM) [%] | drug sensitivity score (Caco-2 [5]) | drug sensitivity score (U2OS [6]) | drug sensitivity score (HepG2 [7]) | drug sensitivity score (Vero E6 [8]) | relative viability EC50 (Caco-2 [9]) [µM] | relative viability EC50 (U2OS [10]) [µM] | relative viability EC50 (HepG2 [11]) [µM] | relative viability EC50 (Vero E6 [12]) [µM] | cell viability (Calu-3 [13]; 1 nM) [%] | cell viability (Calu-3 [13]; 10 nM) [%] | cell viability (Calu-3 [13]; 100 nM) [%] | cell viability (Calu-3 [13]; 1000 nM) [%] | cell viability (Calu-3 [13]; 10000 nM) [%] | drug sensitivity score (Calu-3 [14]) | relative viability EC50 (Calu-3 [15]) [µM]
O=C(/C=C/c1ccccc1)NCCO [brolitene] | 102 | 103 | 95 | 93.5 | 95 | 107 | 109 | 102 | 104 | 99.2 | 107 | 104 | 99.3 | 98 | 102 | 104 | 103 | 99.4 | 104 | 100 | 0 | 0 | 0 | 0 | > 10 | > 10 | > 10 | > 10 | – | – | – | – | – | – | –
CC(CCc1ccccc1)NC(C)C(O)c1ccc(O)cc1 (stereo not drawn) [buphenine] | 90.4 | 102 | 92.2 | 92.5 | 90 | 101 | 100 | 100 | 94.6 | 99.1 | 98.8 | 100 | 95.9 | 89.7 | 91.3 | – | – | – | – | – | 0 | 0 | 0.1 | – | > 10 | > 10 | > 10 | – | 108 | 106 | 99.3 | 104 | 110 | 0 | > 10
O=C(O)c1cn(C2CC2)c2cc(N3CCNCC3)c(F)cc2c1=O [ciprofloxacin] | 112 | 100 | 108 | 112 | 79.1 | 100 | 97.8 | 98 | 96.4 | 103 | 106 | 104 | 114 | 78.1 | 99.8 | 102 | 97.8 | 102 | 91.8 | 97.1 | 0.4 | 0 | 0 | 0 | > 10 | > 10 | > 10 | > 10 | – | – | – | – | – | – | –
CC[C@H]1OC(=O)[C@H](C)[C@@H](O[C@H]2C[C@@](C)(OC)[C@@H](O)[C@H](C)O2)[C@H](C)[C@@H](O[C@@H]2O[C@H](C)C[C@H](N(C)C)[C@H]2O)[C@](C)(OC)C[C@@H](C)C(=O)[C@H](C)[C@@H](O)[C@]1(C)O [clarithromycin] | 102 | 103 | 112 | 100 | 90.7 | 99.3 | 102 | 102 | 96.1 | 98.7 | 104 | 104 | 108 | 98 | 99.8 | – | – | – | – | – | 0 | 0 | 0 | – | > 10 | > 10 | > 10 | – | 93.1 | 107 | 94.5 | 104 | 99.5 | 0 | > 10
N#Cc1ccc(Oc2ccc3c(c2)COB3O)cc1 [crisaborole] | 104 | 104 | 107 | 98.8 | 101 | – | – | – | – | – | 106 | 105 | 112 | 104 | 95.8 | 103 | 105 | 101 | 102 | 98.1 | 0 | – | 0 | 0 | > 10 | – | > 10 | > 10 | 89.8 | 94.6 | 96.7 | 94.3 | 108 | 0 | > 10
C=C1CCN([C@H](C)[C@](O)(Cn2cncn2)c2ccc(F)cc2F)CC1 [efinaconazole] | 96.9 | 98.3 | 100 | 91.8 | 78.3 | 99.2 | 101 | 96.2 | 103 | 96.1 | 102 | 98.3 | 92.4 | 95.9 | 91.5 | – | – | – | – | – | 1.7 | 0 | 0 | – | > 10 | > 10 | > 10 | – | 88 | 99.3 | 94.7 | 96.9 | 91.4 | 0 | > 10
CNC(=O)c1c(I)c(NC(C)=O)c(I)c(C(=O)O)c1I [iothalamic-acid-d3] | 91.8 | 91.5 | 87.6 | 94.5 | 102 | 99.6 | 109 | 104 | 106 | 103 | 107 | 101 | 107 | 94.9 | 100 | – | – | – | – | – | 0 | 0 | 0 | – | > 10 | > 10 | > 10 | – | 94.6 | 99 | 80.3 | 102 | 85.2 | 0.1 | > 10
COc1ccc2[nH]cc(CCNC(C)=O)c2c1 [melatonin] | 107 | 88.8 | 101 | 102 | 99.5 | – | – | – | – | – | – | – | – | – | – | – | – | – | – | – | 0 | – | – | – | > 10 | – | – | – | 101 | 105 | 96.8 | 109 | 105 | 0 | > 10
CC1CCN(CCCC(=O)c2ccc(F)cc2)CC1 [melperone] | 99.3 | 103 | 98.3 | 93.5 | 89.9 | 99.4 | 98.6 | 95.5 | 100 | 93.7 | 104 | 96.5 | 102 | 99.7 | 101 | 100 | 98 | 98.9 | 93 | 100 | 0 | 0 | 0 | 0 | > 10 | > 10 | > 10 | > 10 | – | – | – | – | – | – | –
O=S(=O)(O)CCS [mesna] | 114 | 102 | 104 | 97.2 | 104 | – | – | – | – | – | – | – | – | – | – | 103 | 102 | 107 | 98.5 | 101 | 0 | – | – | 0 | > 10 | – | – | > 10 | 98.4 | 91.8 | 104 | 95.9 | 103 | 0 | > 10
CCOC(=O)CC(=O)N1CCSC1COc1ccccc1OC (stereo not drawn) [moguisteine] | 98.6 | 98.3 | 96.3 | 105 | 98.4 | – | – | – | – | – | 93.7 | 97 | 99.2 | 112 | 104 | 99.7 | 101 | 100 | 105 | 105 | 0 | – | 0 | 0 | > 10 | – | > 10 | > 10 | 99.2 | 103 | 99.3 | 97.6 | 92.8 | 0 | > 10
Cc1cn(-c2cc(NC(=O)c3ccc(C)c(Nc4nccc(-c5cccnc5)n4)c3)cc(C(F)(F)F)c2)cn1 [nilotinib] | 101 | 114 | 97.9 | 106 | 88.1 | – | – | – | – | – | – | – | – | – | – | 107 | 98.2 | 103 | 103 | 106 | 0 | – | – | 0 | > 10 | – | – | > 10 | 98.8 | 106 | 111 | 90.1 | 100 | 0 | > 10
CN[C@H](CC(C)C)C(=O)N[C@H]1C(=O)N[C@@H](CC(N)=O)C(=O)N[C@H]2C(=O)N[C@H]3C(=O)N[C@H](C(=O)N[C@H](C(=O)O)c4cc(O)cc(O)c4-c4cc3ccc4O)[C@H](O[C@H]3C[C@](C)(N)[C@@H](O)[C@H](C)O3)c3ccc(c(Cl)c3)Oc3cc2cc(c3O[C@@H]2O[C@H](CO)[C@@H](O)[C@H](O)[C@H]2O[C@H]2C[C@](C)(NCc3ccc(-c4ccc(Cl)cc4)cc3)[C@@H](O)[C@H](C)O2)Oc2ccc(cc2Cl)[C@H]1O [oritavancin] | 97.2 | 97.7 | 98 | 90.4 | 102 | 102 | 100 | 103 | 96.5 | 102 | 104 | 106 | 98.9 | 104 | 105 | 108 | 113 | 93.2 | 106 | 95.7 | 0 | 0 | 0 | 0 | > 10 | > 10 | > 10 | > 10 | – | – | – | – | – | – | –
CC(C)=CCC/C(C)=C/CC/C(C)=C/C=C/C(C)=C/C(=O)O [peretinoin] | 104 | 98.9 | 101 | 97.9 | 102 | – | – | – | – | – | 101 | 94.3 | 90.9 | 103 | 104 | 101 | 96.1 | 106 | 93.3 | 104 | 0 | – | 0 | 0 | > 10 | – | > 10 | > 10 | 107 | 104 | 105 | 114 | 97.6 | 0 | > 10
O=C1c2cc(Cl)ccc2OC2CCON12 (stereo not drawn) [seclazone] | 108 | 86.3 | 91 | 97.4 | 99.2 | 106 | 96.7 | 101 | 105 | 100 | 102 | 108 | 94.8 | 97.8 | 107 | 90 | 98.2 | 92.7 | 95.2 | 102 | 0 | 0 | 0 | 0 | > 10 | > 10 | > 10 | > 10 | – | – | – | – | – | – | –
COc1cc(NS(=O)(=O)c2ccc(N)cc2)nc(OC)n1 [sulphadimethoxine] | 109 | 99.9 | 103 | 100 | 99.9 | – | – | – | – | – | 106 | 108 | 122 | 98.9 | 105 | 100 | 97.8 | 98.8 | 103 | 97.5 | 0 | – | 0 | 0 | > 10 | – | > 10 | > 10 | 103 | 90.3 | 91.8 | 98.9 | 94 | 0 | > 10
S=P(N1CC1)(N1CC1)N1CC1 [thiotepa] | 94.7 | 101 | 94.8 | 98.5 | 91.1 | – | – | – | – | – | 104 | 96.6 | 102 | 100 | 107 | 108 | 98.9 | 106 | 97.3 | 102 | 0 | – | 0 | 0 | > 10 | – | > 10 | > 10 | 91.8 | 95.7 | 97.5 | 90.2 | 89.5 | 0 | > 10
